Reference: US12390552B2, “Self-assembling peptide gel formulation and methods of use” (Arch Biosurgery, Inc., priority 2020, dated 2025)
Entries after “also recorded” stand apart in the source; their conditions may differ.

Experiments:
[1] = tested on: stomach and esophagus of pigs (submucosal space); test: Submucosal cushion/lift and hemostasis in endoscopic resection procedures in a porcine model; assay type: in vivo
Description: Solutions of (RADA)4 (RADARADARADARADA; SEQ ID NO: 1) in water were prepared. Concentrations of (RADA)4 (SEQ ID NO: 1) were between from 1% and 3% w/v. Methylene blue or indigo carmine dye (0.1 to 0.4%) was added to the solution in some experiments, and excluded from the solution in other experiments.
Pigs were randomly assigned to control or experimental groups. Animals were anesthetized. Multiple (>20) endoscopic procedures (EMD and ESD) were performed in different areas of the stomach of pigs, including the pylorus, and the esophagus, including the sphincter. In some experiments, polyps had previously been created by applying bands to the mucosa.
The (RADA)4 (SEQ ID NO: 1) solutions (experimental animals) or saline or ELEVIEW™ (control animals) were administered into the submucosal space through 2.2 mm channel diameter, 230 cm long catheters that have either 25 gauge needle tips or spray tips on the end to form a cushion. In some experiments, catheters having different diameters were used as well as multiple internal channels. The products were delivered from a prefilled syringe or mixed from a kit prior to delivery.

[2] = Gel formation of (RADA)4 solutions mixed with dextran sulfate solution; assay type: physicochemical; details: 1%-3% solutions mixed with dextran sulfate solution (0.5 and 1%)

In the case of RADARADARADARADA [(RADA)4], the “duration of submucosal lift” value ([1]; pig gastric antrum, delivered through 25G endoscopic injection needle) is reported as > 2 h, the “use with clips as sealant at post-polypectomy site” value ([1]; pig, applied following application of clips) is reported as “useful in conjunction with clips as a potential sealant” and the “hemostasis in actively bleeding lesions” value ([1]; pig, applied topically or injected into mucosa near the bleeding site, with or without visualizing agent) is reported as “provide hemostasis in actively bleeding lesions; also recorded: stopped bleeding promptly, typically within seconds”. For the same sequence, the “durability of cushions versus controls” value ([1]; pig, compared with ELEVIEW™ and saline) was “lasting longer than ELEVIEW™ and saline controls”, the “bleeding after polyp removal / tissue resection” value ([1]; pig, submucosal injection before dissection (prophylactic hemostasis)) was “no visible bleeding was observed following polyp removal; also recorded: minimal to no bleeding in most lesions was observed” and the “time over which the tunnel opening could easily be found after removing and reinserting equipment” value ([1]; pig, submucosal tunnel through cushion) was “typically more than an hour”. The gel formation [2] was “formed space occupying gels”.
